These compounds were tested against T1, GCase (Homo sapiens, UniProt P04062) (assay: activation of GCase in a live cell PFB assay in HELA cells). Conditions: activation of GCase, EC50 ranges.
T1 construct: endogenous in cells; host or cells: HeLa cells
T1 sequence (P04062 40-536): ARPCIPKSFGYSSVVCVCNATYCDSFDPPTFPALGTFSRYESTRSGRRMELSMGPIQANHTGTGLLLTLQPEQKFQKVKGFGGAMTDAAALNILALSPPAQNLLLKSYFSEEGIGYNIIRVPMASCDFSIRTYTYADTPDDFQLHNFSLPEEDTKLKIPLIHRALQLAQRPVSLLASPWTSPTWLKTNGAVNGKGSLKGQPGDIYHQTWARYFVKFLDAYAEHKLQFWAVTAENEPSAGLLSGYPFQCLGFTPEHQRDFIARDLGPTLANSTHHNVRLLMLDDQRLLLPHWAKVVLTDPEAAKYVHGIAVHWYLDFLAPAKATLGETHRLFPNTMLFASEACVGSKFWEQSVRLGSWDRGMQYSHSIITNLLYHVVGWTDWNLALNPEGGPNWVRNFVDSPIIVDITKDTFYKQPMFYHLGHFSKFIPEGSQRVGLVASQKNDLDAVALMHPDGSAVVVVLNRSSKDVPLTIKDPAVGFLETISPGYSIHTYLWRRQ
Type: cell-based
Method: Exemplary compounds were evaluated for activation of GCase in a live cell PFB assay in HELA cells (essentially as described in Ysselstein et al., “LRRK2 kinase activity regulates lysosomal glucocerebrosidase in neurons derived from Parkinson's disease patients” Nature Communications (2019) 10:5570). […] EC50 ranges: A: <10 μM; B: >10-50 μM; C: >50-100 μM; D: >100 μM.

| EC50 | SMILES |
| --- | --- |
| 10 to 50 µM | Cc1nn(CC(F)F)c2nc(N3CCC4(CCN(c5ccnc(C(F)(F)F)c5)C4)CC3)n(C)c(=O)c12 [Cmpd 1104] |
| < 10 µM | CCn1c(N2CCC3(CCN(c4cc(C)nc(C(F)(F)F)n4)C3)CC2)nc2c(cnn2CC(F)F)c1=O [Cmpd 1105] |
| < 10 µM | CCCn1c(N2CCC3(CCN(c4cc(C(F)(F)F)nc(C)n4)C3)CC2)nc2c(cnn2CC(F)F)c1=O [Cmpd 1106] |
| < 10 µM | Cc1nc(N2CCC3(CCN(c4nc5c(cnn5CC(F)F)c(=O)n4CC(C)C)CC3)C2)cc(C(F)(F)F)n1 [Cmpd 1107] |
| < 10 µM | Cc1nc(N2CCC3(CCN(c4nc5c(cnn5CC(F)F)c(=O)n4CC4CC4)CC3)C2)cc(C(F)(F)F)n1 [Cmpd 1108] |
| 50 to 100 µM | CCn1c(N2CCC3(CCN(c4cc(C(F)(F)F)nc(C)n4)C3)CC2)nc2c(cnn2C2COC2)c1=O [Cmpd 1110] |
| 10 to 50 µM | CCCn1c(N2CCC3(CN(c4cc(C(F)(F)F)nc(C)n4)C3)C2)nc2c(cnn2CC(F)F)c1=O [Cmpd 1111] |
| < 10 µM | Cc1nc(N2CC3(CCN(c4nc5c(cnn5CC(F)F)c(=O)n4CC(C)C)C3)C2)cc(C(F)(F)F)n1 [Cmpd 1112] |
| 10 to 50 µM | Cc1nc(N2CC3(CCN(c4nc5c(cnn5CC(F)F)c(=O)n4CC4CC4)C3)C2)cc(C(F)(F)F)n1 [Cmpd 1113] |
| < 10 µM | CCn1c(N2CCC3(CN(c4cc(C(F)(F)F)nc(C)n4)C3)C2)nc2c(cnn2CC(F)(F)F)c1=O [Cmpd 1114] |
| 10 to 50 µM | CCn1c(N2CCC3(CN(c4cc(C(F)(F)F)nc(C)n4)C3)C2)nc2c(cnn2C2COC2)c1=O [Cmpd 1115] |
| 10 to 50 µM | CC(F)(F)Cn1ncc2ncc(N3CCC4(CN(c5ccnc(C(F)(F)F)c5)C4)C3)nc21 [Cmpd 1116] |
| > 100 µM | Cc1nc(N2CC3(CCN(c4cnc5cnn(CC(C)(F)F)c5n4)C3)C2)cc(C(F)(F)F)n1 [Cmpd 1117] |
| > 100 µM | Cc1nc(N2CC3(CCN(c4cncc(-c5ccn(CC(F)F)n5)n4)C3)C2)cc(C(F)(F)F)n1 [Cmpd 1118] |
| 10 to 50 µM | Cc1nc(N2CC3(CCN(c4cncc(-c5ccnn5CC(F)F)n4)C3)C2)cc(C(F)(F)F)n1 [Cmpd 1119] |
| > 100 µM | Cc1nc(N2CC3(CCN(c4cncc(-c5ccn(CC(F)(F)F)n5)n4)C3)C2)cc(C(F)(F)F)n1 [Cmpd 1120] |
| > 100 µM | Cc1nc(N2CC3(CCN(c4cncc(-c5ccnn5CC(F)(F)F)n4)C3)C2)cc(C(F)(F)F)n1 [Cmpd 1121] |
| 10 to 50 µM | Cc1nc(N2CC[C@]3(CCN(c4cnc5c(C)nn(C6COC6)c5n4)C3)C2)cc(C(F)(F)F)n1 [Cmpd 1122] |
| 10 to 50 µM | Cc1nc(N2CC[C@@]3(CCN(c4cnc5c(C)nn(C6COC6)c5n4)C3)C2)cc(C(F)(F)F)n1 [Cmpd 1123] |

| EC50 | SMILES |
| --- | --- |
| 50 to 100 µM | Cc1nc(N2CC3(CCN(c4cncc(-c5cnn(CC(F)F)c5)n4)C3)C2)cc(C(F)(F)F)n1 [Cmpd 1124] |
| 10 to 50 µM | CC(C)(C)Cn1ncc2ncc(N3CCC4(CN(c5ccnc(C(F)(F)F)c5)C4)C3)nc21 [Cmpd 1125] |
| < 10 µM | CC(C)Cn1ncc2ncc(N3CCC4(CN(c5ccnc(C(F)(F)F)c5)C4)C3)nc21 [Cmpd 1126] |
| < 10 µM | Cc1nc(N2CC3(CCN(c4ncc5c(C)nn(CC(C)(F)F)c5n4)C3)C2)cc(C(F)(F)F)n1 [Cmpd 1127] |
| 10 to 50 µM | Cc1nc(N2CC3(CCN(c4cnc5c(C)nn(CC(C)(F)F)c5n4)C3)C2)cc(C(F)(F)F)n1 [Cmpd 1128] |
| < 10 µM | Cc1cc(N2CC3(CCN(c4cnc5c(C)nn(CC(C)(F)F)c5n4)C3)C2)nc(C(F)(F)F)n1 [Cmpd 1129] |
| < 10 µM | Cc1cc(N2CC3(CCN(c4ncc5c(C)nn(CC(C)(F)F)c5n4)C3)C2)nc(C(F)(F)F)n1 [Cmpd 1130] |
| > 100 µM | Cc1nc(N2CC3(CCN(c4nccc(-c5nncs5)n4)C3)C2)cc(C(F)(F)F)n1 [Cmpd 1131] |
| 10 to 50 µM | FC(F)Cn1ncc2ncc(N3CC[C@@]4(CCN(c5cnc(C(F)(F)F)nc5)C4)C3)nc21 [Cmpd 1132] |
| 10 to 50 µM | FC(F)Cn1ncc2ncc(N3CC[C@]4(CCN(c5cnc(C(F)(F)F)nc5)C4)C3)nc21 [Cmpd 1133] |
| > 100 µM | Cc1cc(N2CC3(CCN(c4cnc5cnn(CC(C)(F)F)c5n4)C3)C2)nc(C(F)(F)F)n1 [Cmpd 1134] |
| 10 to 50 µM | Cc1nc(N2CC3(CCN(c4ncc5cnn(CC(C)(F)F)c5n4)C3)C2)cc(C(F)(F)F)n1 [Cmpd 1135] |
| < 10 µM | CCn1nc(C(F)(F)F)c2ncc(N3CCC4(CN(c5cc(C(F)(F)F)nc(C)n5)C4)C3)nc21 [Cmpd 1136] |
| 50 to 100 µM | Cc1nc(N2CC3(CCN(c4cnc5cnn(CC(F)F)c5n4)C3)C2)c(F)c(C(F)(F)F)n1 [Cmpd 1137] |
| 10 to 50 µM | Cc1nc(C(F)(F)F)nc(N2CC3(CCN(c4cnc5cnn(CC(F)F)c5n4)C3)C2)c1F [Cmpd 1138] |
| < 10 µM | Cc1nc(C(F)F)cc(N2CC3(CCN(c4cnc5cnn(CC(F)F)c5n4)C3)C2)n1 [Cmpd 1139] |
| < 10 µM | Cc1cc(N2CC3(CCN(c4cnc5cnn(CC(F)F)c5n4)C3)C2)nc(C(F)F)n1 [Cmpd 1140] |
| < 10 µM | Cn1c(=O)n(C2COC2)c2nc(N3CCC4(CN(c5ccnc(C(F)(F)F)c5)C4)C3)ncc21 [Cmpd 1141] |

The remaining lines, values behind:

| SMILES | EC50 |
| --- | --- |
| CCn1c(=O)n(CC(F)F)c2nc(N3CCC4(CN(c5cc(C(F)(F)F)nc(C)n5)C4)C3)cnc21 [Cmpd 1074] | < 10 µM |
| CCn1c(=O)n(CC(F)F)c2ncc(N3CCC4(CN(c5cc(C(F)(F)F)nc(C)n5)C4)C3)nc21 [Cmpd 1075] | 10 to 50 µM |
| Cc1cc(N2CC3(CCN(c4ncc5cnn(CC(C)(F)F)c5n4)C3)C2)nc(C(F)(F)F)n1 [Cmpd 1076] | 10 to 50 µM |
| Cc1nc(N2CC3(CCN(c4cnc5c(n4)n(CC(F)F)c(=O)n5C)C3)C2)cc(C(F)(F)F)n1 [Cmpd 1077] | < 10 µM |
| Cc1nc(N2CC3(CCN(c4cnc5c(n4)n(C)c(=O)n5CC(F)F)C3)C2)cc(C(F)(F)F)n1 [Cmpd 1078] | < 10 µM |
| Cc1nc(N2CC[C@]3(CCN(c4ncc5c(C)nn(C6COC6)c5n4)C3)C2)cc(C(F)(F)F)n1 [Cmpd 1079] | 10 to 50 µM |
| Cc1nc(N2CC[C@@]3(CCN(c4ncc5c(C)nn(C6COC6)c5n4)C3)C2)cc(C(F)(F)F)n1 [Cmpd 1080] | 10 to 50 µM |
| CCn1c(=O)n(CC(F)F)c2nc(N3CCC4(CN(c5cc(C(F)(F)F)nc(C)n5)C4)C3)ncc21 [Cmpd 1081] | < 10 µM |
| Cc1nc(N2CC3(CCN(c4ncc5c(n4)n(CC(F)F)c(=O)n5C)C3)C2)cc(C(F)(F)F)n1 [Cmpd 1082] | < 10 µM |
| CCn1c(=O)n(CC(F)F)c2nc(N3CCC4(C3)CN(c3cnc(C)nc3C(F)(F)F)C4)ncc21 [Cmpd 1083] | 10 to 50 µM |
| Cc1nc(N2CC3(CCN(c4nc5c(cnn5CC(F)F)c(=O)n4C)C3)C2)cc(C(F)(F)F)n1 [Cmpd 1084] | < 10 µM |
| CCn1c(=O)n(CC(F)F)c2nc(N3CCC4(CC3)CCN(c3cnc(C(F)(F)F)nc3C)C4)cnc21 [Cmpd 1085] | < 10 µM |
| Cc1nc(C(F)(F)F)ncc1N1CCC2(CCN(c3nc4c(cnn4CC(F)F)c(=O)n3C)CC2)C1 [Cmpd 1086] | 10 to 50 µM |
| Cc1cc(N2CCC3(CCN(c4nc5c(cnn5CC(F)F)c(=O)n4C)CC3)C2)nc(C(F)(F)F)n1 [Cmpd 1087] | < 10 µM |
| CC(F)(F)c1ncc(N2CC3(CCN(c4cnc5cnn(CC(F)F)c5n4)C3)C2)cn1 [Cmpd 1088] | < 10 µM |
| CCc1nc(N2CC3(CCN(c4cnc5cnn(CC(F)F)c5n4)C3)C2)cc(C(F)(F)F)n1 [Cmpd 1089] | 10 to 50 µM |
| FC(F)(F)c1cc(N2CC3(CCN(c4cnc5cnn(C6CCOCC6)c5n4)C3)C2)ccn1 [Cmpd 1090] | > 100 µM |
| FC(F)(F)c1cc(N2CC3(CCN(c4cnc5cnn([C@@H]6CCOC6)c5n4)C3)C2)ccn1 [Cmpd 1091] | > 100 µM |
| FC(F)(F)c1cc(N2CC3(CCN(c4cnc5cnn([C@H]6CCOC6)c5n4)C3)C2)ccn1 [Cmpd 1092] | > 100 µM |
| COc1nn(CC(F)F)c2nc(N3CCC4(C3)CN(c3cnc(C(F)(F)F)nc3C)C4)cnc12 [Cmpd 1093] | 10 to 50 µM |
| COc1nn(CC(F)F)c2nc(N3CCC4(CC3)CCN(c3cnc(C(F)(F)F)nc3C)C4)cnc12 [Cmpd 1094] | < 10 µM |
| COc1nn(CC(F)F)c2nc(N3CCC4(CN(c5cc(C(F)(F)F)nc(C)n5)C4)C3)cnc12 [Cmpd 1095] | 10 to 50 µM |
| COc1nn(CC(F)F)c2nc(N3CCC4(CCN(c5cc(C(F)(F)F)nc(C)n5)C4)CC3)cnc12 [Cmpd 1096] | < 10 µM |
| COc1nn(CC(F)F)c2nc(N3CCC4(CN(c5cc(C)nc(C(F)(F)F)n5)C4)C3)cnc12 [Cmpd 1097] | 10 to 50 µM |
| COc1nn(CC(F)F)c2nc(N3CCC4(CCN(c5cc(C)nc(C(F)(F)F)n5)C4)CC3)cnc12 [Cmpd 1098] | < 10 µM |
| CCn1c(N2CCC3(CCN(c4ccnc(C(F)(F)F)c4)C3)CC2)nc2c(cnn2CC(F)F)c1=O [Cmpd 1099] | < 10 µM |
| CCn1c(N2CCC3(CCN(c4ccnc(C(F)(F)F)c4)C3)C2)nc2c(cnn2CC(F)F)c1=O (stereo not shown) [Cmpd 1100] | 10 to 50 µM |
| CCn1c(N2CCC3(CN(c4ccnc(C(F)(F)F)c4)C3)C2)nc2c(cnn2CC(F)F)c1=O [Cmpd 1101] | 10 to 50 µM |
| CCn1c(N2CCC3(CCN(c4cc(C(F)(F)F)nc(C)n4)C3)CC2)nc2c(cnn2CC(F)F)c1=O [Cmpd 1102] | < 10 µM |
| CCn1c(N2CCC3(CN(c4cc(C(F)(F)F)nc(C)n4)C3)C2)nc2c(cnn2CC(F)F)c1=O [Cmpd 1103] | < 10 µM |
